Literature values as cited in patent publication US7964202B2, “Method for treatment of common acne” (Galderma Research & Development, S.N.C., priority 2001, dated 2011).
Like-named read-outs stand apart in the source and are kept apart here.

How the values were obtained:
[1] = for degradation time: 40° C.
[2] = in presence of benzoyl peroxide formulation

SMILES | degradation time ([1]; in solution in PEG 400 (0.5 mg/g)) | degradation time ([1]; in solution in ethanol) | degradation time ([1]; in solution in propylene glycol) | degradation in suspension (dispersed form) ([1]; in water and propylene glycol, storage for 90 days) | Benzoyl peroxide solubility (solvent PEG 400) | Benzoyl peroxide solubility (solvent ethanol) | Benzoyl peroxide solubility (solvent glycerol) | Benzoyl peroxide solubility (solvent propylene glycol) | Benzoyl peroxide solubility (solvent propylene glycol/water (75:25)) | Benzoyl peroxide solubility (solvent water) | retinoid degraded ([2]; 24 hours) | retinoid degraded ([2]; 2 hours)
O=C(OOC(=O)c1ccccc1)c1ccccc1 [Benzoyl peroxide] | 1.4 days | 29 days | 53 days | not degraded | 39.6 mg/g | 17.9 mg/g | 0.15 mg/g | 2.95 mg/g | 0.36 mg/g | 0.000155 mg/g | – | –
COc1ccc(-c2ccc3cc(C(=O)O)ccc3c2)cc1C12CC3CC(CC(C3)C1)C2 [adapalene] | – | – | – | – | – | – | – | – | – | – | no degradation | –
CC1=C(/C=C/C(C)=C/C=C/C(C)=C/C(=O)O)C(C)(C)CCC1 [tretinoin] | – | – | – | – | – | – | – | – | – | – | 95% | 50%
